Values quoted from earlier work, collected in patent publication US20260335319A1, “INJECTABLE COMPOSITIONS OF METOLAZONE” (CIPLA LIMITED, priority 2023, published 2026).
Where two headings read alike, the source gives them in different places.

Columns and labels:
[1] = relative to water

absorption (metolazone, general): variable absorption
bioavailability (metolazone, general): poor bioavailability
absorption (oral immediate release tablet): erratic absorption
bioavailability (oral immediate release tablet): variable bioavailability
Compound: Cc1ccccc1N1C(=O)c2cc(S(N)(=O)=O)c(Cl)cc2NC1C (centres unmarked) [Metolazone, 7-chloro-1,2,3,4-tetrahydro-2-methyl-3-(2-methylphenyl)-4-oxo-6-quinazolinesulfonamide]
solubility in alkali and organic solvents [1]: more soluble in alkali, and organic solvents
